In ChEMBL document CHEMBL5212743, “Selectivity Literature for EUbOPEN Chemogenomics Library wave 3” (2023):

What was measured:
[1] = target: Tyrosine-protein kinase JAK2 (Homo sapiens, UniProt O60674); assay: Selectivity interaction (KinomeScan (DiscoverX)) EUB0000138c JAK2; settings: at 100 nM
[2] = target: T1, Serine/threonine-protein kinase TAO3 (Homo sapiens) (UniProt Q9H2K8); assay: Selectivity interaction (KinomeScan (DiscoverX)) EUB0000305b TAOK3; settings: CellTiter-Glo assay (Promega, proliferation in ACHN cells): IC50 = […] nM, https://www.sgc-ffm.uni-frankfurt.de/#!specificprobeove, at 100 nM
T1 sequence (whole entry): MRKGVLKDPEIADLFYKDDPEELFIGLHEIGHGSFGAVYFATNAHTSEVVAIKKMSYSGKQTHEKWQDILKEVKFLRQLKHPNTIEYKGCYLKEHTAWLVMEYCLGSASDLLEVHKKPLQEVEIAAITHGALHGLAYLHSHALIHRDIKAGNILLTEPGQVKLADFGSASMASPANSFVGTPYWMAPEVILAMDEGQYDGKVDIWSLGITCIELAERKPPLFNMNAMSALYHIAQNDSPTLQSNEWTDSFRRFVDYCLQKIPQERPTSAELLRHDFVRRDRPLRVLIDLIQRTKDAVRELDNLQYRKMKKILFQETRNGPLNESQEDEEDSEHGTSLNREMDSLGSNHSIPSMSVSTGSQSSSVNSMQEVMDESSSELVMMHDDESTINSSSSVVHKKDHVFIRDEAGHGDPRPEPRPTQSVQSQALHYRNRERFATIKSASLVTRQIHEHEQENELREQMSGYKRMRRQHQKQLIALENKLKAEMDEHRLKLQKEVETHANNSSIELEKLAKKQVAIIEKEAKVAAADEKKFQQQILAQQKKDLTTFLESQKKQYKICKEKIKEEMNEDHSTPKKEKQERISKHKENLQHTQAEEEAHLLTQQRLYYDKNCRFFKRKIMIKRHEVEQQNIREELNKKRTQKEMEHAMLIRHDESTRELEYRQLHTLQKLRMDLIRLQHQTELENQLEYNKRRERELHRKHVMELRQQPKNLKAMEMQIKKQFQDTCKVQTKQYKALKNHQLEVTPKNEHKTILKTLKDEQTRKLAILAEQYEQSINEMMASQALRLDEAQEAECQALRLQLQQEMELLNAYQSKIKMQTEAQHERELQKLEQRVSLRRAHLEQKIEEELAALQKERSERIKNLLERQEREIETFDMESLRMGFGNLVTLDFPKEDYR

[3] = target: NT-3 growth factor receptor (Homo sapiens, UniProt Q16288); settings: at 1 µM
[4] = target: Mitogen-activated protein kinase 14 (Homo sapiens, UniProt Q16539); settings: at 10 µM
[5] = target: Mitogen-activated protein kinase 11 (Homo sapiens) (UniProt Q15759); assay: Selectivity interaction (Kinase panel (University of Dundee)) EUB0000169b MAPK11; settings: at 10 µM
[6] = target: T2, Phosphatidylinositol 5-phosphate 4-kinase type-2 gamma (Homo sapiens) (UniProt Q8TBX8); assay: Selectivity interaction (KinomeScan (DiscoverX)) EUB0000169b PIP4K2C; settings: at 1 µM
T2 sequence (whole entry): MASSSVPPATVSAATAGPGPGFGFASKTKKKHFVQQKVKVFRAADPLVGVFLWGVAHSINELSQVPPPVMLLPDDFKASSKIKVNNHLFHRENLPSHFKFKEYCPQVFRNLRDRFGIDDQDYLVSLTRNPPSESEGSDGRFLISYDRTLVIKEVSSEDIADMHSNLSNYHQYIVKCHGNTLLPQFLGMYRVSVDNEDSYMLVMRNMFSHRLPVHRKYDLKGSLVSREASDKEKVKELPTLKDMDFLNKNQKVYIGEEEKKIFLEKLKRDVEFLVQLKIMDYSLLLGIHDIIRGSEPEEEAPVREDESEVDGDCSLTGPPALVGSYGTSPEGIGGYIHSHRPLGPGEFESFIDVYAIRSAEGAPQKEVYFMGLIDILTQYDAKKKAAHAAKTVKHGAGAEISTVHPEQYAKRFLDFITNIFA

[7] = target: Glycogen synthase kinase-3 beta (Homo sapiens, UniProt P49841); assay: Selectivity interaction (Kinase panel (University of Dundee)) EUB0000169b GSK3B; settings: at 10 µM
[8] = target: Focal adhesion kinase 1 (Homo sapiens, UniProt Q05397); assay: Selectivity interaction (KinomeScan (DiscoverX)) EUB0000702a PTK2; settings: at 1 µM
[9] = target: Dual specificity protein kinase CLK4 (Homo sapiens) (UniProt Q9HAZ1); assay: Selectivity interaction (KinomeScan (DiscoverX)) EUB0000702a CLK4; settings: at 1 µM
[10] = target: T1, Serine/threonine-protein kinase TAO3 (Homo sapiens); assay: Selectivity interaction (KinomeScan (DiscoverX)) EUB0000178b TAOK3; settings: at 1 µM
[11] = target: Mitogen-activated protein kinase kinase kinase 3 (Homo sapiens) (UniProt Q99759); assay: Selectivity interaction (KinomeScan (DiscoverX)) EUB0000178b MAP3K3; settings: at 1 µM
[12] = target: Serine/threonine-protein kinase TAO2 (Homo sapiens) (UniProt Q9UL54); assay: Selectivity interaction (KinomeScan (DiscoverX)) EUB0000178b TAOK2; settings: at 1 µM
Serine/threonine-protein kinase TAO2 (Homo sapiens), sequence (Q9UL54 whole entry): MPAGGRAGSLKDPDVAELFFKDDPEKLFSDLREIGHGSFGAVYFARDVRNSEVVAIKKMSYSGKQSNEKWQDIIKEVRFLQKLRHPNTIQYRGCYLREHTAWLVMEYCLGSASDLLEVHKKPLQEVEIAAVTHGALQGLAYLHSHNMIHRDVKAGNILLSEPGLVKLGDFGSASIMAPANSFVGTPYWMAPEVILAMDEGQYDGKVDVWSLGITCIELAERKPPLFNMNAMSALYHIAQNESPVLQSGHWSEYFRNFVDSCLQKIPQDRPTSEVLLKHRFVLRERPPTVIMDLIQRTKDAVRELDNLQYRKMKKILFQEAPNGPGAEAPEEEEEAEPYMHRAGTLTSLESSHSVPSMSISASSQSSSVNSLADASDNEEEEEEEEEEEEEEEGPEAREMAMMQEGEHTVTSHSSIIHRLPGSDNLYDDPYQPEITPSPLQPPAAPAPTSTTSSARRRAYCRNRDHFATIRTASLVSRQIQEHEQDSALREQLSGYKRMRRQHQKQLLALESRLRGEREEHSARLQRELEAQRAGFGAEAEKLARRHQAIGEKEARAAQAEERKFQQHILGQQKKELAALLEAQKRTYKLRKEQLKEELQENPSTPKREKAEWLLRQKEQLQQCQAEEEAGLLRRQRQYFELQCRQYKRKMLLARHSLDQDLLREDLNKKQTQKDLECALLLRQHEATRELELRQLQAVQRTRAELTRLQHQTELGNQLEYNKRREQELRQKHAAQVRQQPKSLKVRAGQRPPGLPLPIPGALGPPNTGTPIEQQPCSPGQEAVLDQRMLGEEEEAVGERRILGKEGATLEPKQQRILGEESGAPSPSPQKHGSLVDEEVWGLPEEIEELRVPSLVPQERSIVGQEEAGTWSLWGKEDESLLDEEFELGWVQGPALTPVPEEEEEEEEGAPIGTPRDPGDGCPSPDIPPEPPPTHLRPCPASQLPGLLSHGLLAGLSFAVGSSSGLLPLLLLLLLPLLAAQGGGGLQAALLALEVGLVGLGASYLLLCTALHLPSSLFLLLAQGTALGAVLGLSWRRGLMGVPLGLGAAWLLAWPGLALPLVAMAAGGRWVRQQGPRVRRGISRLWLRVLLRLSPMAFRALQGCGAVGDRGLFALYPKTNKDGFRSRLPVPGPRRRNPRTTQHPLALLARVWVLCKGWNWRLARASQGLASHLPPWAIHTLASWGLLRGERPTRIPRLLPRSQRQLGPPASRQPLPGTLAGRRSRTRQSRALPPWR

Mitogen-activated protein kinase 11 (Homo sapiens), sequence (Q15759 whole entry): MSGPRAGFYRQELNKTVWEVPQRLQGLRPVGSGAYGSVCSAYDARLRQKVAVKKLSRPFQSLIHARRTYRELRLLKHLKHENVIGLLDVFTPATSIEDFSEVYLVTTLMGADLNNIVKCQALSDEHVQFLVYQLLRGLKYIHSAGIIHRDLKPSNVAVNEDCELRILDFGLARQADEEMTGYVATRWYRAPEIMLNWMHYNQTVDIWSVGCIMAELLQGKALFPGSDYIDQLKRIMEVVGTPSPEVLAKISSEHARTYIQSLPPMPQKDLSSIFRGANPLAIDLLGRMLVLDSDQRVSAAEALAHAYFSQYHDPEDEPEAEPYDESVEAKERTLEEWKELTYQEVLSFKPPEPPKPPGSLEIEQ
Glycogen synthase kinase-3 beta, sequence (P49841 whole entry, looked up): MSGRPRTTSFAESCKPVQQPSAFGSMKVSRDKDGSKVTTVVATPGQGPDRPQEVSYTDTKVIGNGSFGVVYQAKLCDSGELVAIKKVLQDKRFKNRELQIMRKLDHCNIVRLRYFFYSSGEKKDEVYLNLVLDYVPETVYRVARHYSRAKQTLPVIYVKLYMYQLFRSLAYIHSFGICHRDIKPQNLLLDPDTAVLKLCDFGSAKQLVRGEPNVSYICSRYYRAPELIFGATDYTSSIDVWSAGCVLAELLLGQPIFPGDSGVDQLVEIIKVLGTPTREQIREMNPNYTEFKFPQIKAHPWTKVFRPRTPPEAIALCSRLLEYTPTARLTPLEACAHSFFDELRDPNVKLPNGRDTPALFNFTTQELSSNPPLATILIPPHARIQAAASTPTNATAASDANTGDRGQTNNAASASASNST
Mitogen-activated protein kinase 14, sequence (Q16539 whole entry): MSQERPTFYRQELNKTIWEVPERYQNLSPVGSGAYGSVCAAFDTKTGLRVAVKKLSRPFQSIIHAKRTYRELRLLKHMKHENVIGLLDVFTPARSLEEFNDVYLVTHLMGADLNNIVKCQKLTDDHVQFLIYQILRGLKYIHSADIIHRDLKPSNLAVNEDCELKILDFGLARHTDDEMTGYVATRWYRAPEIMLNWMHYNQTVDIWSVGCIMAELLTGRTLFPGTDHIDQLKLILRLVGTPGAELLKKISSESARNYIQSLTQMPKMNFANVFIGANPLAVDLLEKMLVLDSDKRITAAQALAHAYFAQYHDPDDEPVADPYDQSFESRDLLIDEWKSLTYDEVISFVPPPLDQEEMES
Focal adhesion kinase 1, sequence (Q05397 2-1052 limits assumed): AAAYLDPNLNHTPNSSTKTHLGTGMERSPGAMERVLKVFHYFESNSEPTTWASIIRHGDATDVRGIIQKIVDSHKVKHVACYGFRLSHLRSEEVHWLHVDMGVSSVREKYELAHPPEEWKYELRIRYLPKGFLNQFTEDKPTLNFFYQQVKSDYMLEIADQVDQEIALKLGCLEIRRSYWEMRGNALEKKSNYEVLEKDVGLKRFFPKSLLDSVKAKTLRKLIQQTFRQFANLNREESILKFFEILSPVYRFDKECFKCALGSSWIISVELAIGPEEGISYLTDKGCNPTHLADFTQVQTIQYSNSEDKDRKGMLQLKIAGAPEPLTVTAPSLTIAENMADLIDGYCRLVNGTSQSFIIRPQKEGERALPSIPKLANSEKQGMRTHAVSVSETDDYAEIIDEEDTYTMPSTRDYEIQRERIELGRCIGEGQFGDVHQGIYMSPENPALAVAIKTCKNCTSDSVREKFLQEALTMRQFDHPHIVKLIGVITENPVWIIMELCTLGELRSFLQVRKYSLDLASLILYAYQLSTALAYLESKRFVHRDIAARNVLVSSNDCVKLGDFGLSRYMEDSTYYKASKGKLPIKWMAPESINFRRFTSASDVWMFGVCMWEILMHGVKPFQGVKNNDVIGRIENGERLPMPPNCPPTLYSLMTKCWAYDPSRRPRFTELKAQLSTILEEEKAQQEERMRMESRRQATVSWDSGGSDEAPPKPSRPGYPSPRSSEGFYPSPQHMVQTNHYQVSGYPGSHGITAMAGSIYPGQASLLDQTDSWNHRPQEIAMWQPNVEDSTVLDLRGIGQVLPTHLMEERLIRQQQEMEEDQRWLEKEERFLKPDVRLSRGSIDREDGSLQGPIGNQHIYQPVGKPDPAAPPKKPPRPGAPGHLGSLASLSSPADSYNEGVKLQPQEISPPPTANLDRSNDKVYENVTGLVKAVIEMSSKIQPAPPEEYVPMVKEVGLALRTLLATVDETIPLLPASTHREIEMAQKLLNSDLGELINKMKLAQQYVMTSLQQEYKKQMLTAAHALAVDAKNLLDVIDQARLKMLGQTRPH
Tyrosine-protein kinase JAK2, sequence (O60674 whole entry): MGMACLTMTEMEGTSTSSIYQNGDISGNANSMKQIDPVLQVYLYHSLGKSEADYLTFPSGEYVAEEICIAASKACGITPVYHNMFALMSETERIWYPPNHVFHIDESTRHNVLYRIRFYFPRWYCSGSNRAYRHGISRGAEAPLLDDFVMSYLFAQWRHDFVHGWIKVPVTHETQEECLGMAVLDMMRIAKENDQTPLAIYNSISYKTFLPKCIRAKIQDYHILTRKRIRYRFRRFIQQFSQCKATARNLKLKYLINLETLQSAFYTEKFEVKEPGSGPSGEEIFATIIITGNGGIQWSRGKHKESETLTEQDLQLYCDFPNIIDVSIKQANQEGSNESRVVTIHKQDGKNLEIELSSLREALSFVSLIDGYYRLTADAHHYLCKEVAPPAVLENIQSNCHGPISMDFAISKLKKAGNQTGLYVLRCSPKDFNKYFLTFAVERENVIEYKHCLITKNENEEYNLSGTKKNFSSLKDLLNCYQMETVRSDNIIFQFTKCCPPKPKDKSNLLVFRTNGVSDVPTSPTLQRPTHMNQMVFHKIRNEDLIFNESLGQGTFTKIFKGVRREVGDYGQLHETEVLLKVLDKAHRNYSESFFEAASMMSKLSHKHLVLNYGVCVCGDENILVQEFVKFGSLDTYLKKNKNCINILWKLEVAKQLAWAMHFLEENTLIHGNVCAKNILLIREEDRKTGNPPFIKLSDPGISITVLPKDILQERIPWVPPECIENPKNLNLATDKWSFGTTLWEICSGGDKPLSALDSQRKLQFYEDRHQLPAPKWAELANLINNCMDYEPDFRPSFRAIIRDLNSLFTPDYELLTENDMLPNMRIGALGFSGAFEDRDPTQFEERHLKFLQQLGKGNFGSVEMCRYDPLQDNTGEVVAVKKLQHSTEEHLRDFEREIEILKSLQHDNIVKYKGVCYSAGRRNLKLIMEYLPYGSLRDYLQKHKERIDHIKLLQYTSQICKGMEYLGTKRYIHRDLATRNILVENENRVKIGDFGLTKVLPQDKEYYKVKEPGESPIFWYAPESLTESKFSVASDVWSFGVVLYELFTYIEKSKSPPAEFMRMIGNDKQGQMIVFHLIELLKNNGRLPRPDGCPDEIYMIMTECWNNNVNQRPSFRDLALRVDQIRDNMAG
Dual specificity protein kinase CLK4 (Homo sapiens), sequence (Q9HAZ1 whole entry, looked up): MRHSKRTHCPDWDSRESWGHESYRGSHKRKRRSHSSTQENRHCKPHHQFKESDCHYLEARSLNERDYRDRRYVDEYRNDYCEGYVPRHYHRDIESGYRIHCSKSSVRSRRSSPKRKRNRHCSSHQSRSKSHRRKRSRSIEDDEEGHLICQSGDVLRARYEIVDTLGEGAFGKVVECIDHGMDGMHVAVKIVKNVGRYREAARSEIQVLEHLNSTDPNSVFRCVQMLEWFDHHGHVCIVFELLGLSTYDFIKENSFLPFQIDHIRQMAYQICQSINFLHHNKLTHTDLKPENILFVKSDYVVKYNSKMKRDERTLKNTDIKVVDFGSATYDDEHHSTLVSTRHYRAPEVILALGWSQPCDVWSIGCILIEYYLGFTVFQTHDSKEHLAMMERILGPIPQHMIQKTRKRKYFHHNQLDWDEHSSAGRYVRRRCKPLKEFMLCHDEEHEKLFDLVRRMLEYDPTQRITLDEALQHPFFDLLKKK

With `CNC(=O)c1ccc(Nc2ncc(C(F)(F)F)c(NCc3nccnc3N(C)S(C)(=O)=O)n2)cc1` [DEFACTINIB] the % of control [1] was 4.8%.
`C[C@H](c1ccnc(Nc2nc3ccc(-c4cc(N(C)C)ncn4)cc3[nH]2)c1)N1CCN(C(=O)CC(F)(F)F)CC1` [BAY-985] was tested, and the % of control [2] was 41%.
With `CCOc1cn(-c2ccc(F)cc2C)nc1C(=O)Nc1ccc(Oc2ccnc3cc(OC)c(OC)cc23)c(F)c1` the % of control [3] was < 10%.
For `CC[C@@H]1C(=O)N(C)c2cnc(Nc3ccc(C(=O)NC4CCN(C)CC4)cc3OC)nc2N1C1CCCC1`, the % of control [4] was 100%, the % of control [5] was 97% and the % of control [6] was 4.2%. It also gave a % of control [7] of 69%.
`CN(c1ccnc(CNc2nc(Nc3ccc4c(c3)CC(=O)N4)ncc2C(F)(F)F)n1)S(C)(=O)=O` [PF-00911705] gave a % of control [8] of 4.9% and a % of control [9] of 1.4%.
`CN1C(=O)c2sccc2N(C)c2nc(Nc3ccc(S(N)(=O)=O)cc3)ncc21` showed a % of control [10] of 4.5%, a % of control [11] of 2% and a % of control [12] of 3.4%.
